Measurements: patent publication US6503909B1, “Pyrazine compounds” (SmithKline Beecham Corporation, priority 1998, dated 2003)

System: male Han Wistar rats
Assay: rat maximal electroshock test (MES)
Assay type: in vivo
Experimental: For example, male Han Wistar rats (150-200 grms) were dosed i.p. with a suspension of the test compound in 0.25% methylcellulose 2 hr prior to test. A visual observation was carried out just prior to testing for the presence of ataxia. Using auricular electrodes a current of 200 mA, duration 300 millisec, was applied and the presence or absence of hind limb extension noted.

**Q.** Which results are given for Nc1nnc(-c2cccc(Cl)c2Cl)c(N)n1 [lamotrigine]?
**A.** ED50 (Rattus norvegicus, ip, dosed i.p. as suspension in 0.25% methylcellulose 2 hr prior to test, 200 mA, 300 millisec, auricular electrodes, read-out: ED50 (MES, hind limb extension)): 6.1 mg/kg; therapeutic index (ratio of the ataxia ED50 and MES ED50) (i.p., 2 hr prior to test, ataxia by visual observation): 3.3
